Data on 24 compounds can be found in patent publication US11377425B1, “Small molecule modulators of IL-17” (LEO Pharma A/S, priority 2018, dated 2022).

The target of the test is T1, human IL-17AA (Homo sapiens, UniProt Q16552).
T1 construct: host or cells: HEK (human embryonic kidney) cells
T1 sequence (Q16552 24-155): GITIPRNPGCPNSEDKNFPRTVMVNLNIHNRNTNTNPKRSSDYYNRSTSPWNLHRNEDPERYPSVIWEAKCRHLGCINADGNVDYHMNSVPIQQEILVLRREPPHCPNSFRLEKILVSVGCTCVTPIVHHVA
In words: IL-8 release assay in human epithelial keratinocytes adult (HEKa). Type of test: cell-based. Conditions: HEKa cells, 3 ng/mL HEK-human IL-17AA + 10 ng/mL human TNFalpha; read-out: Rel EC50 IL-8 release assay. An outline of the steps: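 Adult human epidermal keratinocytes stimulated 68-72 h at 37 °C with 3 ng/mL HEK-derived human IL-17AA plus 10 ng/mL TNF-alpha (final) in the presence of compound; TNF-alpha alone defines 100% inhibition. Secreted IL-8 measured by HTRF as percent of controls; relative IC50/Emax from four-parameter fit (r^2>0.9), cytotoxicity by PrestoBlue.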
As to `Cc1n[nH]c(C)c1-c1ccc(NC(=O)[C@@H](NC(=O)c2ccnn2C(C)C)C2CCC(F)(F)CC2)cc1` [Example 12, N-[(1S)-1-(4,4-difluorocyclohexyl)-2-[4-(3,5-dimethyl-1H-pyrazol-4-yl)anilino]-2-oxo-ethyl]-2-isopropyl-pyrazole-3-carboxamide], the EC50 (usually the concentration giving half of the maximal effect) is under 100 nM.

For the compound `Cc1n[nH]c(C)c1-c1ccc(NC(=O)[C@@H](NC(=O)c2ccnn2C)C(C2CCC2)C2CCC2)cc1` [Example 13, N-[(1S)-1-[di(cyclobutyl)methyl]-2-[4-(3,5-dimethyl-1H-pyrazol-4-yl)anilino]-2-oxo-ethyl]-2-methyl-pyrazole-3-carboxamide], the EC50 is under 100 nM.

In the case of `Cc1n[nH]c(C)c1-c1ccc(NC(=O)[C@H](CC2CCCCC2)NC(=O)c2ccnn2C)cc1` [Example 15, N-[(1S)-1-(cyclohexylmethyl)-2-[4-(3,5-dimethyl-1H-pyrazol-4-yl)anilino]-2-oxo-ethyl] 2-methyl-pyrazole-3-carboxamide], the EC50 was 100 to 1000 nM.

For `CCn1nccc1C(=O)N[C@@H](CC1CCCCC1)C(=O)Nc1ccc(-c2c(C)n[nH]c2C)cc1` [Example 16, N-[(1S)-1-(cyclohexylmethyl)-2-[4-(3,5-dimethyl-1H-pyrazol-4-yl)anilino]-2-oxo-ethyl]-2-ethyl-pyrazole-3-carboxamide], the EC50 lay in the range of 100 to 1000 nM.

`Cc1n[nH]c(C)c1-c1ccc(NC(=O)[C@H](CC2CCCCC2)NC(=O)c2ccnn2C(C)C)cc1` [Example 17, N-[(1S)-1-(cyclohexylmethyl)-2-[4-(3,5-dimethyl-1H-pyrazol-4-yl)anilino]-2-oxo-ethyl]-2-isopropyl-pyrazole-3-carboxamide]: the EC50 was in the range of 100 to 1000 nM.

As to `CCn1nccc1C(=O)N[C@H](C(=O)Nc1ccc(-c2c(C)n[nH]c2C)cc1)C1CCC(F)(F)CC1` [Example 18, N-[(1S)-1-(4,4-difluorocyclohexyl)-2-[4-(3,5-dimethyl-1H-pyrazol-4-yl)anilino]-2-oxo-ethyl]-2-ethyl-pyrazole-3-carboxamide], the EC50 lay within 100 to 1000 nM.

As for `Cc1n[nH]c(C)c1-c1ccc(NC(=O)[C@@H](NC(=O)c2ccnn2C)[C@H]2CCCC(F)(F)C2)cc1` [Example 19, N-[(1S)-1-[(1S)-3,3-difluorocyclohexyl]-2-[4-(3,5-dimethyl-1H-pyrazol-4-yl)anilino]-2-oxo-ethyl]-2-methyl-pyrazole-3-carboxamide], the EC50 is 100 to 1000 nM.

On to `CCn1nccc1C(=O)N[C@H](C(=O)Nc1ccc(-c2c(C)n[nH]c2C)cc1)[C@H]1CCCC(F)(F)C1` [Example 22, N-[(1S)-1-[(1S)-3,3-difluorocyclohexyl]-2-[4-(3,5-dimethyl-1H-pyrazol-4-yl)anilino]-2-oxo-ethyl]-2-ethyl-pyrazole-3-carboxamide], for which the EC50 lay within 100 to 1000 nM.

As to `Cc1n[nH]c(C)c1-c1ccc(NC(=O)[C@@H](NC(=O)c2ccnn2C(C)C)[C@H]2CCCC(F)(F)C2)cc1` [Example 23, N-[(1S)-1-[(1S)-3,3-difluorocyclohexyl]-2-[4-(3,5-dimethyl-1H-pyrazol-4-yl)anilino]-2-oxo-ethyl]-2-isopropyl-pyrazole-3-carboxamide], the EC50 is under 100 nM.

As to `Cc1n[nH]c(C)c1-c1ccc(NC(=O)[C@H](Cc2ccccc2Cl)NC(=O)c2ccnn2C(C)C)cc1` [Example 24], the EC50 fell in the range of 100 to 1000 nM.

For `Cc1n[nH]c(C)c1-c1ccc(NC(=O)[C@H](Cc2ccccc2Cl)NC(=O)c2ccnn2C)cc1` [Example 25], the EC50 was over 1000 nM.

As to `Cc1n[nH]c(C)c1-c1ccc(NC(=O)[C@@H](NC(=O)c2ccnn2C2CC2)C2CCCCC2)cc1` [Example 27, N-[(1S)-1-cyclohexyl-2-[4-(3,5-dimethyl-1H-pyrazol-4-yl)anilino]-2-oxo-ethyl]-2-cyclopropyl-pyrazole-3-carboxamide], the EC50 fell in the range of 100 to 1000 nM.

In the case of `Cc1n[nH]c(C)c1-c1ccc(NC(=O)[C@@H](NC(=O)c2ccnn2C(F)F)C2CCCCC2)cc1` [Example 28, N-[(1S)-1-cyclohexyl-2-[4-(3,5-dimethyl-1H-pyrazol-4-yl)anilino]-2-oxo-ethyl]-2-(difluoromethyl)pyrazole-3-carboxamide], the EC50 lay in the range of 100 to 1000 nM.

Take `Cc1n[nH]c(C)c1-c1ccc(NC(=O)[C@@H](NC(=O)c2ccnn2CC(F)(F)F)C2CCCCC2)cc1` [Example 29]: the EC50 was 100 to 1000 nM.

Take `Cc1n[nH]c(C)c1-c1ccc(NC(=O)C(NC(=O)c2ccnn2C)C(C2CC2)C2CC2)cc1` (stereo not drawn) [Example 30, N-[1-(dicyclopropylmethyl)-2-[4-(3,5-dimethyl-1 pyrazol-4-yl)anilino]-2-oxo-ethyl]-2-methyl-pyrazole-3-carboxamide]: the 50% effective concentration (EC50) was 100 to 1000 nM.

`Cc1n[nH]c(C)c1-c1ccc(NC(=O)[C@@H](NC(=O)c2ccnn2C)[C@H]2CCOc3ccccc32)cc1` [Example 34, N-[(1S)-1-[(4S)-chroman-4-yl]-2-[4-(3,5-dimethyl-1H-pyrazol-4-yl)anilino]-2-oxo-ethyl]-2-methyl-pyrazole-3-carboxamide]: the EC50 lay in the range of 100 to 1000 nM.

On to `CCn1nccc1C(=O)N[C@H](C(=O)Nc1ccc(-c2c(C)n[nH]c2C)cc1)C(C1CCC1)C1CCC1` [Example 36], for which the EC50 is under 100 nM.

With `Cc1n[nH]c(C)c1-c1ccc(NC(=O)[C@@H](NC(=O)c2ccnn2C(C)C)C(C2CCC2)C2CCC2)cc1` [Example 39], the EC50 was under 100 nM.

Turning to `Cc1n[nH]c(C)c1-c1ccc(NC(=O)[C@@H](NC(=O)c2ccnn2C(C)C)[C@H]2CCCC3(CC3)C2)cc1` [Example 41, N-[(1S)-2-[4-(3,5-dimethyl-1H-pyrazol-4-yl)anilino]-2-oxo-1-[(7S)-spiro[2.5]octan-7-yl]ethyl]-2-isopropyl-pyrazole-3-carboxamide], the EC50 was under 100 nM.

On to `Cc1n[nH]c(C)c1-c1ccc(NC(=O)[C@@H](NC(=O)c2ccnn2C)C(C)C)cc1` [Example 42, N-[(1S)-1-[[4-(3,5-dimethyl-1H-pyrazol-4-yl)phenyl]carbamoyl]-2-methyl-propyl]-2-methyl-pyrazole-3-carboxamide; 2,2,2-trifluoroacetic acid], for which the EC50 was over 1000 nM.

In the case of `CC[C@H](C)[C@H](NC(=O)c1ccnn1C)C(=O)Nc1ccc(-c2c(C)n[nH]c2C)cc1` [Example 43, N-[(1S,2S)-1-[[4-(3,5-dimethyl-1H-pyrazol-4-yl)phenyl]carbamoyl]-2-methyl-butyl]-2-methyl-pyrazole-3-carboxamide], the EC50 was in the range of 100 to 1000 nM.

Regarding `Cc1n[nH]c(C)c1-c1ccc(NC(=O)[C@H](Cc2ccccc2)NC(=O)c2ccnn2C)cc1` [Example 44, N-[(1S)-1-benzyl-2[4-(3,5-dimethyl-1H-pyrazol-4-yl)anilino]-2-oxo-ethyl]-2-methyl-pyrazole-3-carboxamide], the EC50 is over 1000 nM.

Consider `Cc1n[nH]c(C)c1-c1ccc(NC(=O)[C@H](Cc2ccc(O)cc2)NC(=O)c2ccnn2C)cc1` [Example 45, N-[(1S)-2-[4-(3,5-dimethyl-1H-pyrazol-4-yl)anilino]-1-[(4-hydroxyphenyl)methyl]-2-oxo-ethyl]-2-methyl-pyrazole-3-carboxamide], for which the EC50 was over 1000 nM.

Take `Cc1n[nH]c(C)c1-c1ccc(NC(=O)[C@@H](NC(=O)c2ccnn2CCO)C2CCCCC2)cc1` [Example 46, N-[(1S)-1-cyclohexyl-2-[4-(3,5-dimethyl-1H-pyrazol-4-yl)anilino]-2-oxo-ethyl]-2-(2-hydroxyethyl)pyrazole-3-carboxamide]: the EC50 lay in the range of 100 to 1000 nM.
